Experiments:
[1] = biological target: T1, Peptidyl-prolyl cis-trans isomerase NIMA-interacting 1 (Homo sapiens, UniProt Q13526); experiment: Inhibition of recombinant human PIN1 prolyl isomerase activity measured after 180 mins
[2] = biological target: T1, Peptidyl-prolyl cis-trans isomerase NIMA-interacting 1
[3] = biological target: T1, Peptidyl-prolyl cis-trans isomerase NIMA-interacting 1; experiment: Inhibition of His-tagged PIN1 (unknown origin) TAMRA labelled Bth-D-pThr-Pip-L-2Nal as substrate incubated for 30 mins by fluorescence polarization analysis
Huh-7 = experiment: Antiproliferative activity against human Huh-7 cells assessed as cell growth inhibition incubated for 96 hrs by Cell-Titer Glo assay; conditions: Huh-7, 96 h
[4] = biological target: T1, Peptidyl-prolyl cis-trans isomerase NIMA-interacting 1; experiment: Binding affinity to GST-tagged PIN1 (unknown origin) assessed as dissociation constant by SPR analysis
PANC-1 = experiment: Antiproliferative activity against human PANC-1 cells assessed as cell growth inhibition incubated for 96 hrs by Cell-Titer Glo assay; conditions: PANC-1, 96 h
MDA-MB-468 = experiment: Antiproliferative activity against human MDA-MB-468 cells assessed as cell growth inhibition incubated for 96 hrs by Cell-Titer Glo assay; conditions: MDA-MB-468, 96 h
[5] = Permeability across apical to basolateral side in MDCK cells incubated for 120 mins by LC-MS/MS analysis; conditions: dog
[6] = biological target: Protein cereblon/Peptidyl-prolyl cis-trans isomerase NIMA-interacting 1 (Homo sapiens, UniProt Q13526+Q96SW2); experiment: PROTAC activity at CRBN/PIN1 in human MDA-MB-468 cells assessed as induction of PIN1 degradation incubated for 24 hrs by high content analysis
[7] = Efflux ratio of permeability across basolateral to apical side over apical to basolateral side in MDCK cells incubated for 120 mins by LC-MS/MS analysis; conditions: dog

Sequence of Protein cereblon/Peptidyl-prolyl cis-trans isomerase NIMA-interacting 1 (Q13526 whole entry): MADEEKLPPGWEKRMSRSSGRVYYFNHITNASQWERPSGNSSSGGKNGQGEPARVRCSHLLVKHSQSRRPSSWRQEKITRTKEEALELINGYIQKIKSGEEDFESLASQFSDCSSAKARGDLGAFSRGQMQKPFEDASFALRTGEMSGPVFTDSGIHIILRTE
Sequence of Protein cereblon/Peptidyl-prolyl cis-trans isomerase NIMA-interacting 1 (Q96SW2 whole entry): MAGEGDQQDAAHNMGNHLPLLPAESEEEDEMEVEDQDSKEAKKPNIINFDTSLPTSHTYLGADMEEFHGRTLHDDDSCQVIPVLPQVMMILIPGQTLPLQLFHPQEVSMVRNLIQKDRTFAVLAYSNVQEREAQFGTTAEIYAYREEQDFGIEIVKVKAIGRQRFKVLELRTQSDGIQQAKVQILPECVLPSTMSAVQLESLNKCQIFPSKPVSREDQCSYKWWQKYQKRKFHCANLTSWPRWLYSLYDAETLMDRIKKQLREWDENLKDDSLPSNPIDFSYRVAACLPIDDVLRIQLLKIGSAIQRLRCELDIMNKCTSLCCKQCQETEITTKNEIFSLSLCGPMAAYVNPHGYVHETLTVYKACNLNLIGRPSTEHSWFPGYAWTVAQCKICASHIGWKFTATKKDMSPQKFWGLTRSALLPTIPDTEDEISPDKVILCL
T1 sequence (Q13526 whole entry): as the sequence (Q13526 whole entry) above

## CC(C)(C)c1ccc(S(=O)(=O)/N=C2\C=C(SCC(=O)O)C(=O)c3ccccc32)cc1
[1]
  IC50: 0.64 µM

## CC(C)(C)CN(C(=O)CCl)C1CCS(=O)(=O)C1 (stereo unspecified)
[2]
  Ki: 0.017 µM

## CNC(=O)C(Cc1cn(-c2ccc(-c3ccc(C#N)cc3)cc2)nn1)NC(=O)C1(c2ccccc2)CCCC1 (stereo unspecified)
[3]
  IC50: > 100 µM

## CNC(=O)C(Cc1cn(-c2ccc(-c3ccc(C#N)cc3)cc2)nn1)NC(=O)C1(c2ncccc2C)CC1 (stereo unspecified)
Huh-7
  GI50: > 30 µM
[4]
  Kd: 0.37 µM
PANC-1
  GI50: > 30 µM
MDA-MB-468
  GI50: 4.6 µM
[3]
  IC50: 0.36 µM

## Cc1ccccc1C1(C(=O)NC(Cc2cn(-c3ccc(-c4ccc(C#N)cc4)cc3)nn2)C(=O)NC2CCN(C)CC2)CC1 (stereo unspecified)
Huh-7
  GI50: 9.9 µM
[5]
  Papp A→B at 2 h: 0.01 ×10⁻⁶ cm/s
PANC-1
  GI50: 9.3 µM
MDA-MB-468
  GI50: 36.8 µM

## Cc1cccnc1C1(C(=O)NC(Cc2cn(-c3ccc(-c4ccc(C#N)cc4)cc3)nn2)C(=O)NCCCOc2cccc3c2C(=O)N(C2CCC(=O)NC2=O)C3=O)CC1 (stereo unspecified)
Huh-7
  GI50: 5.8 µM
[6]
  DC50: 0.02 µM
PANC-1
  GI50: > 30 µM
MDA-MB-468
  GI50: 2.7 µM

## CNC(=O)C(Cc1cn(-c2ccn(C)n2)nn1)NC(=O)C1(c2ccccc2)CC1 (stereo unspecified)
[4]
  Kd: 39.3 µM
[3]
  IC50: > 10 µM

## CNC(=O)C(Cc1cn(-c2ccc(-c3ccc(C#N)cc3)cc2)nn1)NC(=O)C1(c2ccccc2)CCC1 (stereo unspecified)
[3]
  IC50: > 100 µM

## Cc1cccnc1C1(C(=O)NC(Cc2cn(-c3ccc(-c4ccc(C#N)cc4)cc3)nn2)C(=O)NCCCCOc2cccc3c2C(=O)N(C2CCC(=O)NC2=O)C3=O)CC1 (stereo unspecified)
Huh-7
  GI50: 20.7 µM
[6]
  DC50: 0.071 µM
PANC-1
  GI50: > 30 µM
MDA-MB-468
  GI50: 16.5 µM

## CNC(=O)C(Cc1cn(Cc2cc3ccccc3s2)nn1)NC(=O)C1(c2ccccc2)CC1 (stereo unspecified)
[4]
  Kd: > 50 µM
[3]
  IC50: > 100 µM

## CNC(=O)C(Cc1cn(-c2ccc(-c3ccc(C#N)cc3)cc2)nn1)NC(=O)C1(c2ccccc2)CCCCC1 (stereo unspecified)
[3]
  IC50: > 100 µM

## CNC(=O)C(Cc1cn(-c2ccc(-c3ccc(C#N)cc3)cc2)nn1)NC(=O)Cc1ccccc1 (stereo unspecified)
[3]
  IC50: > 100 µM

## CNC(=O)C(Cc1cn(-c2ccc(C3CCN(C)CC3)cc2)nn1)NC(=O)C1(c2ccccc2)CC1 (stereo unspecified)
[3]
  IC50: > 100 µM

## CNC(=O)/C(=C\c1cn(-c2ccc(-c3ccc(C#N)cc3)cc2)nn1)NC(=O)C1(c2ccccc2C)CC1
Huh-7
  GI50: 15.4 µM
[5]
  Papp A→B at 2 h: 0.78 ×10⁻⁶ cm/s
[4]
  Kd: 0.12 µM
[7]
  efflux ratio at 2 h: 4.77
PANC-1
  GI50: 23.1 µM
MDA-MB-468
  GI50: 13.8 µM
[3]
  IC50: 0.25 µM

## Cc1cccnc1C1(C(=O)NC(Cc2cn(-c3ccc(-c4ccc(C#N)cc4)cc3)nn2)C(=O)NC2CCN(CCCOc3cccc4c3C(=O)N(C3CCC(=O)NC3=O)C4=O)CC2)CC1 (stereo unspecified)
Huh-7
  GI50: > 30 µM
[6]
  DC50: 0.041 µM
PANC-1
  GI50: > 30 µM
MDA-MB-468
  GI50: > 30 µM

## CNC(=O)C(Cc1cn(-c2ccc(-c3ccc(C#N)cc3)cc2)nn1)NC(=O)C(C)(C)c1ccccc1 (stereo unspecified)
[4]
  Kd: 2.93 µM
[3]
  IC50: 2.09 µM

## CC(C)(C)NC(=O)C(Cc1cn(-c2ccc(-c3ccc(C#N)cc3)cc2)nn1)NC(=O)C1(c2ccccc2)CC1 (stereo unspecified)
[3]
  IC50: > 100 µM

## Cc1cccnc1C1(C(=O)NC(Cc2cn(-c3ccc(-c4ccc(C#N)cc4)cc3)nn2)C(=O)NC2CCN(CCCCCOc3cccc4c3C(=O)N(C3CCC(=O)NC3=O)C4=O)CC2)CC1 (stereo unspecified)
Huh-7
  GI50: > 30 µM
[6]
  DC50: 0.019 µM
PANC-1
  GI50: > 30 µM
MDA-MB-468
  GI50: > 30 µM

From ChEMBL document CHEMBL5584361, “Re-Evaluating PIN1 as a Therapeutic Target in Oncology Using Neutral Inhibitors and PROTACs” (J Med Chem, 2024)
